Source: patent US8765799B2, “Streptospirole derivatives” (Sanofi, priority 2008, dated 2014)
Converted amounts (≈) assume the structure as drawn.

system: M. smegmatis (ATCC 607); assay: Broth microdilution IC50 determination, M. smegmatis; format: cell-based, Mycobacterium smegmatis; details: Mycolicibacterium smegmatis, ATCC607, assay mode Lum. (ATP level), 48 h incubation
Text: (§1) A test which is based on determining the intracellular concentration of ATP is employed for measuring the bacterial viability. It relies on the fact that intact living bacteria have higher intra-cellular ATP levels than bacterial cells which are damaged by the action of antimicrobials. The formulation of the reagent supports bacterial cell lysis and ATP is quantified luminometrically by a luciferin/luciferase reaction. The compounds of the formula (I) are used in a test as further outlined in Examples section in a single dose of 0.125-64μg/ml and a dose dependency is given as a IC50 value in Table 6. This Example describes the standard broth dilution method-microdilution used to determine the in vitro susceptibility of bacteria growing aerobically according to NCCLS M7-A7. The IC50 value of the compound to be tested is calculated as the inhibitory concentration of 50% at which 50% visible turbidity or the ATP level is inhibited. Compound stock solutions were prepared at concentrations of at least 1000μg/ml with methanol. After testing, the stock solution is aliquoted and stored at −80° C. Nystatin was dissolved in DMSO and then further dissolved in the respective culture medium. For every test strain following controls on each 384 well clear-transparent microtitration plate are needed: • drug-free growth control, • sterile control, and • Ciprofloxacin and Nystatin as reference compounds. For Mycobacterium smegmatis a special 384 well white microtitration plate was used. For an IC50 determination at least ten or twenty serial dilutions (geometrical dilution with factor 2) were prepared. [table] […] The exact colony number of each strain was determined by a surface culture method. […] Reading: The reading of the grown wells was done by means of a photometer for microtitration plates at 590 nm by absorbance mode. For Mycobacterium smegmatis the microtitration plates were measured by luminescence mode after incubation with 20μl BacTiter-Glo™/well for 5 minutes at room temperature protected from light. Evaluation: The IC50 values were determined in XLfit 4, model function 205.

Compared with `CCCCCCc1c(O)ccc2c1O[C@]1(C2=O)C(Cl)=C(Cl)C(=O)N1C` [(II), Streptospirole A], `CC[C@H](C)CCCc1c(O)ccc2c1O[C@]1(C2=O)C(Cl)=C(Cl)C(=O)N1C` [(IV), Streptospirole C] is 4.4-fold lower in IC50: 0.4 µg/mL (≈ 1.04 µM) for the first, 0.09 µg/mL (≈ 0.226 µM) for the second.

Work on `CC(C)CCCc1c(O)ccc2c1O[C@]1(C2=O)C(Cl)=C(Cl)C(=O)N1C` [(III), Streptospirole B] yielded an IC50 of 0.26 µg/mL (≈ 0.677 µM).

system: S. aureus (ATCC 29213); assay: Broth microdilution IC50 determination, S. aureus ATCC 29213; format: cell-based; details: Staphylococcus aureus, ATCC29213, assay mode Abs. (590 nm), 20 h incubation
Method: as §1, with “The” for “A test which is based on determining the intracellular concentration of ATP is employed for measuring the bacterial viability. It relies on the fact that intact living bacteria have higher intra-cellular ATP levels than bacterial cells which are damaged by the action of antimicrobials. The formulation of the reagent supports bacterial cell lysis and ATP is quantified luminometrically by a luciferin/luciferase reaction. The”, “For” for “For Mycobacterium smegmatis a special 384 well white microtitration plate was used. For”, “[table] The usual test concentrations range from 64 to 0.125μg/ml or 64 to 0.0001μg/ml for strong inhibition. At the specification of the concentration the inoculation volume has to be considered. The whole test volume (compound solution and inoculum) was prepared with 40μl and accordingly for Mycobacterium smegmatis 20μl. The serial dilutions with Ciprofloxacin and Nystatin were prepared in special 384 well clear-transparent microtitration plate and were transferred in each 384 well microtitration plate before inoculation.” for “[table]”

First: CCCCCCc1c(O)ccc2c1O[C@]1(C2=O)C(Cl)=C(Cl)C(=O)N1C [(II), Streptospirole A]
Second: CC[C@H](C)CCCc1c(O)ccc2c1O[C@]1(C2=O)C(Cl)=C(Cl)C(=O)N1C [(IV), Streptospirole C]
The IC50 of the first is 16-fold higher: 0.08 µg/mL (≈ 0.208 µM) for the first, 0.005 µg/mL (≈ 0.0126 µM) for the second.

`CC(C)CCCc1c(O)ccc2c1O[C@]1(C2=O)C(Cl)=C(Cl)C(=O)N1C` [(III), Streptospirole B] showed an IC50 of 0.05 µg/mL (≈ 0.13 µM).

system: S. aureus (ATCC 33592); assay: Broth microdilution IC50 determination, S. aureus ATCC 33592; format: cell-based; details: Staphylococcus aureus, ATCC33592, assay mode Abs. (590 nm)
Method: as §1, with “The” for “A test which is based on determining the intracellular concentration of ATP is employed for measuring the bacterial viability. It relies on the fact that intact living bacteria have higher intra-cellular ATP levels than bacterial cells which are damaged by the action of antimicrobials. The formulation of the reagent supports bacterial cell lysis and ATP is quantified luminometrically by a luciferin/luciferase reaction. The”, “For” for “For Mycobacterium smegmatis a special 384 well white microtitration plate was used. For”, “The usual test concentrations range from 64 to 0.125μg/ml or 64 to 0.0001μg/ml for strong inhibition. At the specification of the concentration the inoculation volume has to be considered. The whole test volume (compound solution and inoculum) was prepared with 40μl and accordingly for Mycobacterium smegmatis 20μl. The serial dilutions with Ciprofloxacin and Nystatin were prepared in special 384 well clear-transparent microtitration plate and were transferred in each 384 well microtitration plate before inoculation.” for “[table]”

Going from `CCCCCCc1c(O)ccc2c1O[C@]1(C2=O)C(Cl)=C(Cl)C(=O)N1C` [(II), Streptospirole A] to `CC[C@H](C)CCCc1c(O)ccc2c1O[C@]1(C2=O)C(Cl)=C(Cl)C(=O)N1C` [(IV), Streptospirole C], the IC50 falls from 0.03 µg/mL (≈ 0.0781 µM) to 0.003 µg/mL (≈ 0.00753 µM) (10-fold).

With `CC(C)CCCc1c(O)ccc2c1O[C@]1(C2=O)C(Cl)=C(Cl)C(=O)N1C` [(III), Streptospirole B] the IC50 was 0.02 µg/mL (≈ 0.052 µM).

system: E. faecalis (ATCC 29212); assay: Broth microdilution IC50 determination, E. faecalis; format: cell-based; details: Enterococcus faecalis, ATCC29212, assay mode Abs. (590 nm), 20 h incubation
Method: as §1, with “The” for “A test which is based on determining the intracellular concentration of ATP is employed for measuring the bacterial viability. It relies on the fact that intact living bacteria have higher intra-cellular ATP levels than bacterial cells which are damaged by the action of antimicrobials. The formulation of the reagent supports bacterial cell lysis and ATP is quantified luminometrically by a luciferin/luciferase reaction. The”, “For” for “For Mycobacterium smegmatis a special 384 well white microtitration plate was used. For”, “[table] The usual test concentrations range from 64 to 0.125μg/ml or 64 to 0.0001μg/ml for strong inhibition. At the specification of the concentration the inoculation volume has to be considered. The whole test volume (compound solution and inoculum) was prepared with 40μl and accordingly for Mycobacterium smegmatis 20μl. The serial dilutions with Ciprofloxacin and Nystatin were prepared in special 384 well clear-transparent microtitration plate and were transferred in each 384 well microtitration plate before inoculation.” for “[table]”

Compared with `CCCCCCc1c(O)ccc2c1O[C@]1(C2=O)C(Cl)=C(Cl)C(=O)N1C` [(II), Streptospirole A], `CC[C@H](C)CCCc1c(O)ccc2c1O[C@]1(C2=O)C(Cl)=C(Cl)C(=O)N1C` [(IV), Streptospirole C] is 12-fold lower in IC50: 0.87 µg/mL (≈ 2.26 µM) for the first, 0.07 µg/mL (≈ 0.176 µM) for the second.

With `CC(C)CCCc1c(O)ccc2c1O[C@]1(C2=O)C(Cl)=C(Cl)C(=O)N1C` [(III), Streptospirole B] the IC50 was 0.59 µg/mL (≈ 1.54 µM).

system: S. pneumoniae (DSMZ 11865); assay: Broth microdilution IC50 determination, S. pneumoniae; format: cell-based; details: Streptococcus pneumoniae, DSMZ11865, assay mode Lum.
Text: as §1, with “For” for “For Mycobacterium smegmatis a special 384 well white microtitration plate was used. For”, “The usual test concentrations range from 64 to 0.125μg/ml or 64 to 0.0001μg/ml for strong inhibition.” for “[table]”

`CCCCCCc1c(O)ccc2c1O[C@]1(C2=O)C(Cl)=C(Cl)C(=O)N1C` [(II), Streptospirole A] and `CC[C@H](C)CCCc1c(O)ccc2c1O[C@]1(C2=O)C(Cl)=C(Cl)C(=O)N1C` [(IV), Streptospirole C] are within 1.5-fold of each other in IC50: 0.28 µg/mL (≈ 0.729 µM) for the first, 0.21 µg/mL (≈ 0.527 µM) for the second.

`CC(C)CCCc1c(O)ccc2c1O[C@]1(C2=O)C(Cl)=C(Cl)C(=O)N1C` [(III), Streptospirole B] gave an IC50 of 0.34 µg/mL (≈ 0.885 µM).

system: S. pyogenes (ATCC 12344); assay: Broth microdilution IC50 determination, S. pyogenes; format: cell-based; details: Streptococcus pyogenes, ATCC12344, assay mode Abs. (590 nm), 20 h incubation
Method: as §1, with “The” for “A test which is based on determining the intracellular concentration of ATP is employed for measuring the bacterial viability. It relies on the fact that intact living bacteria have higher intra-cellular ATP levels than bacterial cells which are damaged by the action of antimicrobials. The formulation of the reagent supports bacterial cell lysis and ATP is quantified luminometrically by a luciferin/luciferase reaction. The”, “For” for “For Mycobacterium smegmatis a special 384 well white microtitration plate was used. For”, “[table] The usual test concentrations range from 64 to 0.125μg/ml or 64 to 0.0001μg/ml for strong inhibition. At the specification of the concentration the inoculation volume has to be considered. The whole test volume (compound solution and inoculum) was prepared with 40μl and accordingly for Mycobacterium smegmatis 20μl. The serial dilutions with Ciprofloxacin and Nystatin were prepared in special 384 well clear-transparent microtitration plate and were transferred in each 384 well microtitration plate before inoculation.” for “[table]”

Going from `CCCCCCc1c(O)ccc2c1O[C@]1(C2=O)C(Cl)=C(Cl)C(=O)N1C` [(II), Streptospirole A] to `CC[C@H](C)CCCc1c(O)ccc2c1O[C@]1(C2=O)C(Cl)=C(Cl)C(=O)N1C` [(IV), Streptospirole C], the IC50 falls from 0.28 µg/mL (≈ 0.729 µM) to 0.04 µg/mL (≈ 0.1 µM) (7-fold).

With `CC(C)CCCc1c(O)ccc2c1O[C@]1(C2=O)C(Cl)=C(Cl)C(=O)N1C` [(III), Streptospirole B] the IC50 was 0.12 µg/mL (≈ 0.312 µM).
